Like-named read-outs stand apart in the source and are kept apart here. No end group written: not given here.
B1: thaumatin (protein)
chain: ATFEIVNRCSYTVWAAASKGDAALDAGGRQLNSGESWTINVEPGTKGGKIWARTDCYFDDSGSGICKTGDCGGLLRCKRFGRPPTTLAEFSLNQYGKDYIDISNIKGFNVPMDFSPTTRGCRGVRCAADIVGQCPAKLKAPGGGCNDACTVFQTSEYCCTTGKCGPTEYSRFFKRLCPDAFSYVLDKPTTVTCPGSSNYRVTFCPTA
modifications: Eight disulfides
notes: sweet-tasting plant protein, E957

Molecular target: T1, human TAS1R2-WT/TAS1R3-G367C (Homo sapiens, UniProt Q7RTX0+Q8TE23, G367C)
T1 construct: expressed in transfected cells; host or cells: HEK293T stably expressing Gα16gust44
T1 sequence (Q8TE23 20-839): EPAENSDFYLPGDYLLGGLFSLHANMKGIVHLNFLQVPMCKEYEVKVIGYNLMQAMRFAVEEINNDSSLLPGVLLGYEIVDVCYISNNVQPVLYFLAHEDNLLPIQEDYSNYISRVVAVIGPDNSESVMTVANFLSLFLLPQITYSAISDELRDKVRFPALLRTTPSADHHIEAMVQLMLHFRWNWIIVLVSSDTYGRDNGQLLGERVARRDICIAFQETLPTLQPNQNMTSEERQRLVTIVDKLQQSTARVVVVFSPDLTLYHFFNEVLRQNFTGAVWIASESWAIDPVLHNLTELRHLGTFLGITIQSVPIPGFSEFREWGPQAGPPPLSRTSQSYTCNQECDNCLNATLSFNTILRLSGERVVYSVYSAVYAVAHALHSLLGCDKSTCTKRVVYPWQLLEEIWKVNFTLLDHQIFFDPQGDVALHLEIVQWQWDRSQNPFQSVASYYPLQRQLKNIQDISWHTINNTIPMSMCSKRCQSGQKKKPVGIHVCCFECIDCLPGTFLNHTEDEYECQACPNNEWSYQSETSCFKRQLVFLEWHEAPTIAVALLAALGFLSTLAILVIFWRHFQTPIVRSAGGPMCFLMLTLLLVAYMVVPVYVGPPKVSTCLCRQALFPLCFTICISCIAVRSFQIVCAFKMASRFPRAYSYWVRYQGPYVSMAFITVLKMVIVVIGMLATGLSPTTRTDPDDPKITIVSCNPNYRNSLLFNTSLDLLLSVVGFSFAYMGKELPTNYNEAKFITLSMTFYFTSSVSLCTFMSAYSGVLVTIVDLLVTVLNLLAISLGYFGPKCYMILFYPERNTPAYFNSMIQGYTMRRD
T1 sequence (Q7RTX0 21-852 G367C): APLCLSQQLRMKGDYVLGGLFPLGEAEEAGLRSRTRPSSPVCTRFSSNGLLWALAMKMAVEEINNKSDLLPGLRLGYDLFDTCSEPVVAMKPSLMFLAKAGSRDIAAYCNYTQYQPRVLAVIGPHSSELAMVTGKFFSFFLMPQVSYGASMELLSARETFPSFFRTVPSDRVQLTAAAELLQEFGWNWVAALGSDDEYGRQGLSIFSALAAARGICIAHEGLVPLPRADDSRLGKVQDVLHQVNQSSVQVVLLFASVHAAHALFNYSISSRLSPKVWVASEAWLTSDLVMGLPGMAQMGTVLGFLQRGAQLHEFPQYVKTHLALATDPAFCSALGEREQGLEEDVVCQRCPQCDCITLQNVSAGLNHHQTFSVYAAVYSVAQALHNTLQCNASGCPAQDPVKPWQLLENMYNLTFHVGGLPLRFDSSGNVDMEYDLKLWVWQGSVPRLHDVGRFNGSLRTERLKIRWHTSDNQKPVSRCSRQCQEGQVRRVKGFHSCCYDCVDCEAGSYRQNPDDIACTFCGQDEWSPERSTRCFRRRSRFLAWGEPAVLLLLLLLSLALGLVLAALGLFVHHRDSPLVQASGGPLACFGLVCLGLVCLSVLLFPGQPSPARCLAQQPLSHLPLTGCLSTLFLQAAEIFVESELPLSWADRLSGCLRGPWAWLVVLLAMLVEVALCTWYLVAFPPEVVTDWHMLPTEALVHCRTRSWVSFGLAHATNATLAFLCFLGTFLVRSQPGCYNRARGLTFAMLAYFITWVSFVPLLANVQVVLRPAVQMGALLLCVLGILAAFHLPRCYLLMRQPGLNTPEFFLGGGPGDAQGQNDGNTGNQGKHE
Assay: Calcium mobilisation assay, TAS1R2-WT with TAS1R3 variant G367C
Assay type: cell-based
Details: for Max ΔF/F0: maximal signal amplitude
Excerpt: The coding sequences for TAS1R2 and TAS1R3 were commercially synthesised, and the human codon was optimised for expression in human cells. The coding sequences of human TAS1R2 and TAS1R3 were subcloned and inserted into the mammalian expression vectors pcDNA6/myc-HisA and pcDNA4/myc-HisA (Invitrogen; Thermo Fisher Scientific; Illkirch, France) between the EcoRI and NotI restriction sites, generating the plasmids pcDNA6-TAS1R2 and pcDNA4-TAS1R3, respectively. To increase protein expression in mammalian cells, an upstream start codon was used, which was a sequence called MAX, corresponding to the QBI SP163 element also described in pcDNA4-HisMax (Invitrogen; Thermo Fisher Scientific; Illkirch, France). To measure the expression level of the receptor by immunohistochemistry, we used the FLAG sequence ([…]) in the C-terminal position, which encodes the FLAG tag epitope. SNP variants of TAS1R2 and TAS1R3 were constructed based on […], respectively, using site-directed mutagenesis (Genewiz; Leipzig, Germany).
The HEK293T cells were kindly provided by Jay P. Slack (Givaudan Flavors Corporation; Cincinnati, OH, USA). HEK293T cells stably transfected with Gα16gust44 [43, 67] were seeded in poly-D-lysine-coated clear-bottom black 96-well plates (0.35 × 10^5 cells/well) in high-glucose DMEM supplemented with 2 mM GlutaMAX, 10% dialysed foetal bovine serum with penicillin/streptomycin and G418 (400 μg/mL) at 37 °C and 6.3% CO2 in a humidified atmosphere as previously reported. […] As a negative control, HEK293T cells were mock-transfected with the empty expression vector. After a further 24 h of incubation, the HEK293T cells were washed with C1 buffer (130 mM NaCl, 5 mM KCl, 10 mM HEPES pH 7.4 and 2 mM CaCl2). The 96-well plates containing the cells were then stimulated with sweet-tasting compounds. […] Different concentration ranges were tested depending on the sweet compound injected. The Ca^2+ changes were expressed as fractional changes in fluorescent light intensity: ΔF/F = (F − F0)/F0, where F was the fluorescent light intensity at each point, and F0 was the value of emitted fluorescent light prior to stimulus application. To calculate dose–response relationships, the changes in fluorescence upon stimulus application were averaged, mock-subtracted and baseline-corrected. The dose–response data obtained were adjusted using a 4-parameter logistic equation. The half-maximal effective concentrations (EC50 values) and maximal signal amplitudes were calculated using SigmaPlot software (version 15.0) (Systat Software; San Jose, CA, USA).
For in vitro calcium mobilisation assay performed on hTAS1R2-SNPs, hTAS1R3-SNPs and mTAS1R3-I60T, 6 to 7 concentrations were tested for each sweet compound, plus buffer alone. All concentration–receptor combinations were measured in duplicate, and each experiment was repeated at least 4 times (8 wells/concentration). Results were expressed for each concentration as ΔF/F mean ± SEM and represented as dose–response curves.

| Molecule | R1 = Variant EC50/WT EC50 | Max ΔF/F0 | EC50 (read-out: EC50) | EC50 (brazzein) |
| --- | --- | --- | --- | --- |
| CC1=CC(=O)NS(=O)(=O)O1 [Acesulfame K, acesulfame K] | 0.7 | 0.06 ± 0.01 | 443 ± 121 µM | – |
| O=S(=O)(O)NC1CCCCC1 [Cyclamate, cyclamate] | – | – | 2120 ± 34 µM | – |
| C[C@H](CC[C@@H](O[C@@H]1O[C@H](CO[C@@H]2O[C@H](CO)[C@@H](O)[C@H](O)[C@H]2O)[C@@H](O)[C@H](O)[C@H]1O[C@@H]1O[C@H](CO)[C@@H](O)[C@H](O)[C@H]1O)C(C)(C)O)[C@H]1CC[C@@]2(C)[C@@H]3CC=C4[C@@H](CC[C@H](O[C@@H]5O[C@H](CO[C@@H]6O[C@H](CO)[C@@H](O)[C@H](O)[C@H]6O)[C@@H](O)[C@H](O)[C@H]5O)C4(C)C)[C@]3(C)[C@H](O)C[C@]12C [Mogroside V, mogroside V] | 2.6 | 0.60 ± 0.02 | 82.4 ± 5.2 µM | – |
| COc1ccc(CCC(=O)c2c(O)cc(O[C@@H]3O[C@H](CO)[C@@H](O)[C@H](O)[C@H]3O[C@@H]3O[C@@H](C)[C@H](O)[C@@H](O)[C@H]3O)cc2O)cc1O [NHDC, neohesperidin dihydrochalcone] | 1.6 | 0.75 ± 0.05 | 81.3 ± 13.1 µM | – |
| COC(=O)[C@H](Cc1ccccc1)NC(=O)[C@H](CC(=O)O)NCCC(C)(C)C [Neotame] | 1.6 | 0.31 ± 0.01 | 1.95 ± 0.09 µM | – |
| C=C(C)[C@@H]1CC=C(/C=N/O)CC1 [Perillartine, perillartine] | 2.3 | 1.49 ± 0.24 | 32 ± 17.1 µM | – |
| C=C1C[C@@]23CC[C@H]4[C@@](C)(CCC[C@@]4(C)C(=O)O[C@@H]4O[C@H](CO)[C@@H](O)[C@H](O[C@@H]5O[C@H](CO)[C@@H](O)[C@H](O)[C@H]5O)[C@H]4O[C@@H]4O[C@H](CO)[C@@H](O)[C@H](O)[C@H]4O)[C@@H]2CC[C@]1(O[C@@H]1O[C@H](CO)[C@@H](O)[C@H](O[C@@H]2O[C@H](CO)[C@@H](O)[C@H](O)[C@H]2O)[C@H]1O[C@@H]1O[C@H](CO)[C@@H](O)[C@H](O)[C@H]1O)C3 [Rebaudioside M, rebaudioside M] | 1.2 | 0.35 ± 0.01 | 47.3 ± 1.9 µM | – |
| OC[C@H]1O[C@H](O[C@]2(CCl)O[C@H](CCl)[C@@H](O)[C@@H]2O)[C@H](O)[C@@H](O)[C@H]1Cl [Sucralose] | 1.7 | 0.32 ± 0.01 | 182 ± 7 µM | – |
| brazzein (QDKCKKVYENYPVSKCQLANQCNYDCKLDKHARSGECFYDEKRNLQCICDYCEY; ends and bridges not checked; cysteine pairing not given here; UniProt P56552 1-54, looked up) [sweet-tasting protein obtained by recombinant production using the yeast Pichia pastoris] | 1.6 | 0.72 ± 0.01 | – | 181.7 ± 6.9 µg/mL |
| thaumatin | 1.4 | 0.52 ± 0.01 | – | – |
| B1 | – | – | 14.8 ± 0.5 µM | – |
